{
  "source": "patent US20250213519A1",
  "about": "“SYNERGY FOR INCREASING INSULIN SENSITIVITY” (Board of Supervisors of Louisiana State University and …, priority 2022, published 2025)",
  "key": {"[1]": {"tested_on": "human adipocytes", "test": "Lipolysis assay (agonist-stimulated glycerol release)", "format": "cell-based", "conditions": "agonist exposure 4.5 hours, white and NRBC-treated adipocytes", "description": "Thermogenesis is fueled by lipolysis, so we determined whether agonist-stimulated glycerol release, a measure of lipolysis, reflected the increases in receptors and lipolysis machinery in NRBC-treated adipocytes. First, adipocyte cultures from four donors who had obesity were treated with cell medium (untreated control cells) or NRBC for seven days. On the day of the acute lipolysis assay, cells were exposed to the individual receptor agonists for […] in buffer and glycerol released into the cell supernatant was measured. Non-hydrolyzable 8-cpt-cAMP, a potent activator of PKA signaling, was also evaluated in each experiment as a positive control since it bypasses individual receptors and measures the maximum capacity for lipolysis (36). The βARs, PTHR, MC1R, GPER and ADORA2B are all stimulatory G-protein (Gs) coupled receptors and signal through the CAMP-PKA signal transduction mechanism. NPR1 is not a Gs-coupled receptor and signals through an alternate mechanism of guanylate cyclase-cGMP-protein kinase G (PKG).\nCells were differentiated in 96-well plates and treated with cell medium (untreated) or NRBC for seven days. On the day of the lipolysis assay, cells were exposed for 4.5 hours to buffer (KRB with 1% BSA) or receptor agonists dissolved in buffer. Agonists were used at concentrations shown to give maximum responses and were: 8-Cpt-cAMP 200 μM non-hydrolyzable PKA activator of maximum stimulated lipolysis (cAMP) (36), atrial natriuretic peptide 0.1 μM for NPR1 and NPR3(37), parathyroid hormone (amino acids 1-34) 1 μM for PTHR(38), isoproterenol 1 μM all βARs and dobutamine 1 μM for β1AR (39), estradiol 1 μM for GPER (40), growth hormone 250 ng/ml for GHR (41), adrenocorticotropin hormone 1 μM for MC1R (42), bile acid chenodeoxycholic acid 30 μM for TGR5(43), adenosine 1 μM for ADORA1 and ADORA2B (44), and menthol 100 μM for TRPM8(45). Supernatants were removed for measurement of glycerol released using Glycerol Reagent A, and concentrations were determined using a standard curve. Data are from four or five experiments each with cells from different donors with BMI from 27 to 36."}, "[2]": {"biological_target": "CDK5 (Homo sapiens, UniProt Q00535)", "sequence (Q00535 whole entry, species assumed)": "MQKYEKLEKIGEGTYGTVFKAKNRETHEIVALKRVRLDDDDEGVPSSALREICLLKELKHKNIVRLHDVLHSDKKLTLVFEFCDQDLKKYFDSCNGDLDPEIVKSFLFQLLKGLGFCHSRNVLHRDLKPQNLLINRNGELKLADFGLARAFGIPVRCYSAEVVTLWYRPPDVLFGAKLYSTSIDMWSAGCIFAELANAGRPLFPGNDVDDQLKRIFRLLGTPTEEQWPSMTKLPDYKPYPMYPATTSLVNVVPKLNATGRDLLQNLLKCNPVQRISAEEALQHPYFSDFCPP", "sequence (Q15078 whole entry partner, species assumed)": "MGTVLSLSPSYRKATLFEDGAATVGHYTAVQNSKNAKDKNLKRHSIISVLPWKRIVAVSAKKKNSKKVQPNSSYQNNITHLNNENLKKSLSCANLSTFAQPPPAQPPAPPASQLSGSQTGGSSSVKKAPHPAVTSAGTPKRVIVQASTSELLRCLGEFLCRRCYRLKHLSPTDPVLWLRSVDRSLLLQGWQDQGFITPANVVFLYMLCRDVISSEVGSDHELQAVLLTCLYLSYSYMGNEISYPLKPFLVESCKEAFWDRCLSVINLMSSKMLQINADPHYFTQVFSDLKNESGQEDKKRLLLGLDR", "conditions": "cited from earlier work"}, "[3]": {"tested_on": "human adipocytes", "test": "mRNA levels (qRT-PCR) in human adipocyte cultures treated for seven days", "format": "cell-based", "conditions": "for UCP1 gene expression, carotenoid combined with NR: 2 μM carotenoid + 8 μM NR, seven days, vs NR alone; for gene expression, β-carotene added to naringenin: 2 μM β-carotene + 8 μM naringenin extract, 7 days", "text": "In adipocytes, CDK5 inhibitors reduce adipogenesis and increase genes for energy expenditure by altering PPARγ target gene selection. We measured the expression of the PPARα/γ direct target gene UCP1 after treating human adipocyte cultures with CDK5-inhibiting flavonols combined with naringenin for seven days.\nHuman adipose-derived stem cells from overweight and obese female donors were purchased from LaCell, LLC (New Orleans, Louisiana) or isolated from lipoaspirate waste donated post-surgery from women with obesity using methods as previously described (31). Cells were seeded, maintained until two days after becoming confluent, and differentiated into adipocytes in the presence of rosiglitazone and isobutylmethylxanthine for five days as previously described (25). […], dissolved in DMSO at 1000×, started 5 days after the differentiation period and lasted for seven days in adipocyte maintenance medium with heat inactivated serum, before RNA and protein were isolated from adipocyte cultures.\nQuantitative reverse transcriptase and real-time PCR were conducted in one reaction with the gene-specific reverse PCR primer also priming the cDNA synthesis as previously described (25). Primer-probe sequences for UCP1, GLUT4, ATGL, adiponectin, PGC-1α and ribosomal RPL13A, used to adjust target gene values for total RNA in each sample, have been previously reported (25). […] Predesigned human primer and probe sets from Thermofisher Scientific are PM20D1 Hs00399438_m1; ANGPTL4 Hs00211522_m1; GDF11 Hs00195156_m1; S100B Hs00902901_m1."}, "[4]": {"tested_on": "human adipocytes", "test": "mRNA levels (qRT-PCR) in human adipocyte cultures treated for seven days", "format": "cell-based", "conditions": "for gene expression, carotenoid alone: 2 μM carotenoid individually, seven days"}, "[5]": {"test": "clinical", "conditions": "human, in vivo, 150 mg"}, "[6]": {"tested_on": "human adipocytes", "test": "Protein levels by Western blotting in human adipocytes treated for seven days", "format": "cell-based"}, "[7]": {"tested_on": "human adipocytes", "test": "Protein levels by Western blotting in human adipocytes treated for seven days", "format": "cell-based", "conditions": "8 μM NR or 50 nM myricetin, 7 days", "text": "Since we saw an increase in SIRT3 mRNA and myricetin upregulates SIRT3 protein in adipocytes from mice, we analyzed levels of SIRT3 protein in human adipocytes treated for seven days with the same concentrations of compounds. Protein was isolated from adipocytes and analyzed on immunoblots probed with antibodies that specifically bind human SIRT3 or human β-actin. […] However, adding myr to NR+BC boosted SIRT3 protein by 37%.\nHuman adipose-derived stem cells from overweight and obese female donors were purchased from LaCell, LLC (New Orleans, Louisiana) or isolated from lipoaspirate waste donated post-surgery from women with obesity using methods as previously described (31). Cells were seeded, maintained until two days after becoming confluent, and differentiated into adipocytes in the presence of rosiglitazone and isobutylmethylxanthine for five days as previously described (25). Treatments of adipocytes with 8 μM NR and 2 μM carotenoid, dissolved in DMSO at 1000×, started 5 days after the differentiation period and lasted for seven days in adipocyte maintenance medium with heat inactivated serum, before RNA and protein were isolated from adipocyte cultures.\nWhole cell protein was isolated from differentiated cell cultures after treatment for seven days, lysed with RIPA buffer containing protease and phosphatase inhibitors, and pushed through a 20-gauge needle four times to disrupt organelles. Fifty micrograms of total cell protein were loaded per lane and resolved in 7.5% SDS-PAGE gels, transferred to nitrocellulose membranes, and probed overnight at 4° C. with specific primary antibodies. Anti-rabbit or -mouse secondary antibodies conjugated to horseradish peroxidase were used for detection of target proteins. Image J was used to quantify protein bands on Western blots. To adjust for variations in total protein loaded in each lane, β-actin was used."}, "[8]": {"tested_on": "human fat cells", "test": "Oxygen consumption rate of human fat cells", "format": "cell-based", "text": "Referring to FIG. 8, cells consume oxygen while metabolizing fat for thermogenic energy expenditure, and we directly measured oxygen consumption rate."}, "[9]": {"test": "Case study of naringenin in an individual with obesity and diabetes", "format": "in vivo, human", "description": "Next, we gave 150 mg of naringenin extract in 500 mg of orange extract three times a day by capsule to a person who was obese and had type 2 diabetes that was only treated with diet. They took the capsule three times a day for 8 weeks without going on a diet or changing their exercise habits. […] For an obesity drug to get approval for weight loss it should cause a loss of 5%, so the results were close to what one can expect for a drug. Their insulin resistance went down by 20% and their metabolic rate went up by 3 percent.\nWe went back to the person whom we tested at 150 mg three times a day with naringenin, and tested them with 300 mg three times a day. They maintained the loss on the lower dose of naringenin and had also lost further weight, so they were below their natural weight set point."}, "[10]": {"conditions": "150 mg three times a day, 8 weeks"}, "[11]": {"conditions": "150 mg three times a day, eight weeks"}},
  "note": "“Also recorded” adds a separate entry of the source.",
  "data": [
    {"compound": "Nc1ncnc2c1ncn2[C@@H]1O[C@H](CO)[C@@H](O)[C@H]1O", "note": "[adenosine]", "values": [
      {"measurement": "lipolysis stimulated by the receptor agonist itself", "setting": "[1]", "value": "no effect"}
    ]},
    {"compound": "C[C@]12CC[C@@H]3c4ccc(O)cc4CC[C@H]3[C@@H]1CC[C@@H]2O", "note": "[estrogen, estradiol]", "values": [
      {"measurement": "lipolysis stimulated by the receptor agonist itself", "setting": "[1]", "value": "small reduction in lipolysis; also recorded: neither growth hormone nor estrogen stimulated lipolysis"}
    ]},
    {"compound": "O=c1c(O)c(-c2ccc(O)cc2)oc2cc(O)cc(O)c12", "note": "[kaempferol, reference compound]", "values": [
      {"measurement": "CDK5 kinase activity inhibition EC50 (in words)", "setting": "[2]", "value": "low micromolar range"},
      {"measurement": "EC50", "setting": "[2]; read-out: CDK5 inhibition EC50", "value": 66, "unit": "µM"}
    ]},
    {"compound": "CC1=C[C@H](O)CC(C)(C)[C@H]1/C=C/C(C)=C/C=C/C(C)=C/C=C/C=C(C)/C=C/C=C(C)/C=C/C1=C(C)C[C@@H](O)CC1(C)C", "note": "[lutein]", "values": [
      {"measurement": "UCP1 gene expression, carotenoid combined with NR", "setting": "[3]", "value": "synergistic; also recorded: synergistically enhanced levels of UCP1"},
      {"measurement": "gene expression, carotenoid alone", "setting": "[4]", "value": "no effect on gene expression"}
    ]},
    {"compound": "CC(C)=CCC/C(C)=C/C=C/C(C)=C/C=C/C(C)=C/C=C/C=C(C)/C=C/C=C(C)/C=C/C=C(\\C)CCC=C(C)C", "note": "[lycopene]", "values": [
      {"measurement": "UCP1 gene expression, carotenoid combined with NR", "setting": "[3]", "value": "did not alter NR-stimulated UCP1 levels"},
      {"measurement": "UCP1 gene expression, carotenoid combined with NR", "setting": "[3]; listed as Lycopene", "value": "did not alter the NR response"},
      {"measurement": "gene expression, carotenoid alone", "setting": "[4]", "value": "no effect on gene expression"}
    ]},
    {"compound": "O=C1C[C@@H](c2ccc(O)cc2)Oc2cc(O)cc(O)c21", "note": "[naringenin]", "values": [
      {"measurement": "UCP1 and GLUT4 mRNA, naringenin concentration curve", "setting": "[3]; naringenin 0.03 μM to 8 μM with constant 3 μM myricetin", "value": "increased gene expression in a concentration-dependent manner"},
      {"measurement": "adiponectin production", "setting": "[3]; naringenin alone (FIG. 9)", "value": "increased production of a secreted hormone (adiponectin)"},
      {"measurement": "UCP-1 expression", "setting": "[4]; human fat cells in culture and adult adipose specimens, naringenin alone", "value": "caused an increase in Uncoupling Protein-1 (UCP-1)"},
      {"measurement": "Cmax", "setting": "[5]", "value": "~16", "unit": "µM"},
      {"measurement": "half-life", "setting": "[5]", "value": 3, "unit": "h"},
      {"measurement": "PGC-1α protein levels vs untreated control", "setting": "[6]; 8 μM NR, 2 μM BC, 7 days", "value": "approximately two-fold"},
      {"measurement": "protein levels of PPARα, PPARγ, PGC-1α and NAMPT", "setting": "[6]; NR alone", "value": "did not upregulate protein levels"},
      {"measurement": "UCP-1 and adiponectin protein levels", "setting": "[6]; naringenin 8 μM over 7 days (FIG. 10)", "value": "protein levels for UCP-1 and adiponectin increased"},
      {"measurement": "SIRT3 protein levels, single agent", "setting": "[7]", "value": "upregulate SIRT3 protein levels"},
      {"measurement": "basal and maximal energy expenditure (oxygen consumption rate)", "setting": "[8]", "value": "strong inducer of basal and maximal energy expenditure"},
      {"measurement": "body weight loss", "setting": "[9]; [10]", "value": 2.3, "unit": "%"},
      {"measurement": "decrease in insulin resistance", "setting": "[9]; [10]", "value": 20, "unit": "%"},
      {"measurement": "increase in metabolic rate", "setting": "[9]; [10]", "value": 3, "unit": "%"},
      {"measurement": "increase in energy expenditure", "setting": "[9]; [11]", "value": 3.5, "unit": "%"},
      {"measurement": "reduction of fasting insulin concentrations", "setting": "[9]; [11]", "value": 20, "unit": "%"},
      {"measurement": "body weight at higher dose", "setting": "[9]; 300 mg three times a day, same person", "value": "only maintained their weight loss without adding further weight loss"},
      {"measurement": "diabetes status", "setting": "[9]; after weight loss following the 150 mg dose", "value": "resolved their diabetes"}
    ]},
    {"compound": "CC1=C(/C=C/C(C)=C/C=C/C(C)=C/C=C/C=C(C)/C=C/C=C(C)/C=C/C2=C(C)CCCC2(C)C)C(C)(C)CCC1", "note": "[β-carotene, β-Carotene]", "values": [
      {"measurement": "SIRT3 mRNA expression", "setting": "[3]; 2 μM BC added to NR+myr, vs NR or NR+myricetin", "value": "significantly increased SIRT3 expression"},
      {"measurement": "UCP1 gene expression, carotenoid combined with NR", "setting": "[3]; listed as BC", "value": "synergistic; also recorded: synergistically enhanced levels of UCP1"},
      {"measurement": "gene expression, β-carotene added to naringenin", "setting": "[3]", "value": "synergistically enhances the effects of naringenin on gene expression; also recorded: synergistically induces gene expression"},
      {"measurement": "gene expression, β-carotene added to naringenin", "setting": "[3]; listed as beta-carotene", "value": "synergistically increases expression of genes for thermogenic energy expenditure and insulin sensitivity"},
      {"measurement": "gene expression, carotenoid alone", "setting": "[4]", "value": "no effect on gene expression"}
    ]},
    {"compound": "adrenocorticotropin hormone (SYSMEHFRWGKPVGKKRRPVKVYPNGAEDESAEAFPLEF; Corticotropin; UniProt P01189 138-176, looked up) [ACTH, MC1R agonist used in lipolysis assay]", "values": [
      {"measurement": "lipolysis stimulated by the receptor agonist itself", "setting": "[1]", "value": "no effect"}
    ]},
    {"compound": "growth hormone: human pituitary growth hormone, GHR agonist in lipolysis assay", "values": [
      {"measurement": "lipolysis stimulated by the receptor agonist itself", "setting": "[1]", "value": "neither growth hormone nor estrogen stimulated lipolysis"}
    ]},
    {"compound": "parathyroid hormone (1-34) [PTH]", "values": [
      {"measurement": "lipolysis stimulated by the receptor agonist itself", "setting": "[1]", "value": "highest in control white adipocytes"}
    ]}
  ]
}
